Experimental data published in patent US9694016B2 (Novartis AG, priority 2013, dated 2017).

Biological target: b-Raf (V600E) (Homo sapiens (Human), UniProt P15056, V600E)
Conditions: read-out: b-Raf IC-50; AlphaScreen, 60 min pre-incubation, 3 hours reaction

Sequence of b-Raf (V600E) (P15056 whole entry V600E): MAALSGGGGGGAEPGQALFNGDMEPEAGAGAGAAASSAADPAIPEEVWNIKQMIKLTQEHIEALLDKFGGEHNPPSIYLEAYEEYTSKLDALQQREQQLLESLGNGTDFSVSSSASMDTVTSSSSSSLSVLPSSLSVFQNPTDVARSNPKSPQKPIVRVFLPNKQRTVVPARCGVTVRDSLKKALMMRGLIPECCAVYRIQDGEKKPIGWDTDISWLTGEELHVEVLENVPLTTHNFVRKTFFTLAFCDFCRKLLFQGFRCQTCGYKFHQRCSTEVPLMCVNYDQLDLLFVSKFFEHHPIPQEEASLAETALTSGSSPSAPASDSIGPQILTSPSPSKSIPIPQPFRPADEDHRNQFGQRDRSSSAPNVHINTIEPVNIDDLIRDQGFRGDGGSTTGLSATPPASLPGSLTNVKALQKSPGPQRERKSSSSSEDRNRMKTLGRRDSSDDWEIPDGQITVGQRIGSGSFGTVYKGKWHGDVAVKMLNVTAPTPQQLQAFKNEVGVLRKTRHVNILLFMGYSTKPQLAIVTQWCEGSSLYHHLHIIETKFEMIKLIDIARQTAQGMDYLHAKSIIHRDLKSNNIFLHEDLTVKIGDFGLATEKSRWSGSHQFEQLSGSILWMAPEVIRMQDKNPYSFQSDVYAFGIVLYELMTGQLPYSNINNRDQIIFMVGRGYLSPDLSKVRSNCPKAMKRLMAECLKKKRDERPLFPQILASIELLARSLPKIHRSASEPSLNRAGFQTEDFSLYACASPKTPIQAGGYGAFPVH

| IC50 [nM] | Compound |
| --- | --- |
| 4.3 | CCN(C)c1cc(C(=O)Nc2ccc(C)c(-c3cc(N4CCOCC4)c(=O)n(C)c3)c2)ccn1 [Example 453, 2-(ethyl(methyl)amino)-N-(4-methyl-3-(1-methyl-5-morpholino-6-oxo-1,6-dihydropyridin-3-yl)phenyl)isonicotinamide] |
| 2.2 | Cc1ccc(NC(=O)c2ccnc(C(C)(F)F)c2)cc1-c1cc(N2CCOCC2)nc(OC2CNC2)n1 [Example 779, N-(3-(2-(azetidin-3-yloxy)-6-morpholinopyrimidin-4-yl)-4-methylphenyl)-2-(1,1-difluoroethyl)isonicotinamide] |
| 12.1 | CCNc1nc(-c2cc(NC(=O)c3ccnc(C(C)(C)O)c3)ccc2C)cc(N2CCOC[C@H]2C)n1 [Example 712, (R)—N-(3-(2-(ethylamino)-6-(3-methylmorpholino)pyrimidin-4-yl)-4-methylphenyl)-2-(2-hydroxypropan-2-yl)isonicotinamide] |
| 3.1 | Cc1ncc(NC(=O)c2ccnc(C3(C#N)CC3)c2)cc1-c1cc(N2CCOCC2)n2nccc2n1 [Example 802, 2-(1-cyanocyclopropyl)-N-(6-methyl-5-(7-morpholinopyrazolo[1,5-a]pyrimidin-5-yl)pyridin-3-yl)isonicotinamide] |
| 6.4 | Cc1ncc(NC(=O)c2ccnc(C3CC3)c2)cc1-c1cc(N2CCOCC2)n(C)c(=O)c1 [Example 511, 2-cyclopropyl-N-(1′,2-dimethyl-6′-morpholino-2′-oxo-1′,2′-dihydro-[3,4′-bipyridin]-5-yl)isonicotinamide] |
| 4.4 | Cc1ncc(NC(=O)c2ccnc(C(C)(F)F)c2)cc1-c1cncc(N2CCOCC2)n1 [Example 533, 2-(1,1-difluoroethyl)-N-(6-methyl-5-(6-morpholinopyrazin-2-yl)pyridin-3-yl)isonicotinamide] |
| 1.3 | CCC(F)(F)c1cc(C(=O)Nc2ccc(C)c(-c3cc(N4CCOCC4)c(=O)n(C)n3)c2)ccn1 [Example 643, 2-(1,1-difluoropropyl)-N-(4-methyl-3-(1-methyl-5-morpholino-6-oxo-1,6-dihydropyridazin-3-yl)phenyl)isonicotinamide] |
| 12.7 | Cc1ncc(NC(=O)c2ccnc(C(C)(C)F)c2)cc1-c1cc(N2CCOCC2)c(=O)n(C)n1 [Example 677, 2-(2-fluoropropan-2-yl)-N-(6-methyl-5-(1-methyl-5-morpholino-6-oxo-1,6-dihydropyridazin-3-yl)pyridin-3-yl)isonicotinamide] |
| 2.2 | Cc1ccc(NC(=O)c2ccnc(C(C)(C)F)c2)cc1-c1cc(N2CCOCC2)c(OCCO)nn1 [Example 588, 2-(2-fluoropropan-2-yl)-N-(3-(6-(2-hydroxyethoxy)-5-morpholinopyridazin-3-yl)-4-methylphenyl)isonicotinamide] |
| 19 | Cc1ncc(NC(=O)c2ccnc(C(C)(C)C#N)c2)cc1-c1cc(N2CCOCC2)nc(N[C@H](C)CO)n1 [Example 747, (R)-2-(2-cyanopropan-2-yl)-N-(5-(2-((1-hydroxypropan-2-yl)amino)-6-morpholinopyrimidin-4-yl)-6-methylpyridin-3-yl)isonicotinamide] |
| 1.1 | Cc1ccc(C(=O)Nc2cccc(C(F)F)c2)cc1-c1cc(N2CCOCC2)n(C)c(=O)c1 [Example 514, N-(3-(difluoromethyl)phenyl)-4-methyl-3-(1-methyl-6-morpholino-2-oxo-1,2-dihydropyridin-4-yl)benzamide] |
| 56.7 | CCOc1nnc(-c2cc(NC(=O)c3ccnc(C(C)(C)C#N)c3)cnc2C)cc1N1CCOC[C@H]1C [Example 623, (R)-2-(2-cyanopropan-2-yl)-N-(5-(6-ethoxy-5-(3-methylmorpholino)pyridazin-3-yl)-6-methylpyridin-3-yl)isonicotinamide] |
| 2.7 | COc1nnc(-c2cc(NC(=O)c3ccnc(C(C)(F)F)c3)cnc2C)cc1N1CCOCC1 [Example 603, 2-(1,1-difluoroethyl)-N-(5-(6-methoxy-5-morpholinopyridazin-3-yl)-6-methylpyridin-3-yl)isonicotinamide] |
| 6.2 | Cc1ncc(C(=O)Nc2cccc(C(F)(F)F)c2)cc1-c1cc(N2CCOCC2)c(=O)n(C)c1 [Example 443, 1′,2-dimethyl-5′-morpholino-6′-oxo-N-(3-(trifluoromethyl)phenyl)-1′,6′-dihydro-[3,3′-bipyridine]-5-carboxamide] |
| 1 | CCNc1nc(-c2cc(NC(=O)c3ccnc(C(C)(F)F)c3)ccc2C)cc(N2CCOCC2)n1 [Example 697, 2-(1,1-difluoroethyl)-N-(3-(2-(ethylamino)-6-morpholinopyrimidin-4-yl)-4-methylphenyl)isonicotinamide] |

| Compound | IC50 [nM] |
| --- | --- |
| Cc1ccc(NC(=O)c2ccnc(C(C)(C)C#N)c2)cc1-c1cc(N2C3CCC2COC3)c(=O)n(C)n1 [Example 669, N-(3-(5-(3-oxa-8-azabicyclo[3.2.1]octan-8-yl)-1-methyl-6-oxo-1,6-dihydropyridazin-3-yl)-4-methylphenyl)-2-(2-cyanopropan-2-yl)isonicotinamide] | 10 |

Same assay, conditions: read-out: b-Raf IC-50; AlphaScreen, 60 min pre-incubation, reaction 3 hours at room temperature

| IC50 [nM] | Compound |
| --- | --- |
| 3 | Cc1ccc(NC(=O)c2ccnc(C(C)(C)C#N)c2)cc1-c1cnc(OCCO)c(N2CCOCC2)c1 [Example 998, 2-(2-cyanopropan-2-yl)-N-(3-(6-(2-hydroxyethoxy)-5-morpholinopyridin-3-yl)-4-methylphenyl)isonicotinamide] |
| 4.99 | Cc1ccc(NC(=O)c2cccc(C(F)(F)F)c2)cc1-c1ccnc(N2CCOCC2=O)c1 [Example 1134] |
| 0.75 | Cc1ccc(NC(=O)c2ccnc(C(C)(F)F)c2)cc1-c1cc(OCCO)nc(N2CCOCC2)c1 [Example 1159, 2-(1,1-difluoroethyl)-N-(3-(2-(2-hydroxyethoxy)-6-morpholinopyridin-4-yl)-4-methylphenyl)isonicotinamide] |
| 8.1 | Cc1ncc(NC(=O)c2ccnc(C(C)C)c2)cc1-c1cc(N2CCOCC2)c2nccn2c1 [Example 882, 2-isopropyl-N-(6-methyl-5-(8-morpholinoimidazo[1,2-a]pyridin-6-yl)pyridin-3-yl)isonicotinamide] |
| 1.48 | Cc1ccc(NC(=O)c2cccc(C(F)(F)F)c2)cc1-c1cc(NCC(O)C(F)(F)F)nc(N2CCOCC2)c1 (stereo not drawn) [Example 1063, N-(4-methyl-3-(2-morpholino-6-((3,3,3-trifluoro-2-hydroxypropyl)amino)pyridin-4-yl)phenyl)-3-(trifluoromethyl)benzamide] |
| 2.32 | Cc1ccc(NC(=O)c2ccnc(C(F)(F)F)c2)cc1-c1cc(NC[C@@H](C)O)nc(N2CCOCC2)n1 [Example 1023, (R)—N-(3-(6-((2-hydroxypropyl)amino)-2-morpholinopyrimidin-4-yl)-4-methylphenyl)-2-(trifluoromethyl)isonicotinamide] |
| 2.36 | Cc1ncc(NC(=O)c2ccnc(C(C)(F)F)c2)cc1-c1cnc(OC2CCOCC2)c(N2CCOCC2)c1 [Example 938, 2-(1,1-difluoroethyl)-N-(2-methyl-5′-morpholino-6′-((tetrahydro-2H-pyran-4-yl)oxy)-[3,3′-bipyridin]-5-yl)isonicotinamide] |
| 32.9 | CCN1CCN(c2cc(C(=O)Nc3cnc(C)c(-c4cc(NCCO)nc(N5CCOCC5)c4)c3)cc(C(F)(F)F)c2)CC1 [Example 1045, 3-(4-ethylpiperazin-1-yl)-N-(2′-((2-hydroxyethyl)amino)-2-methyl-6′-morpholino-[3,4′-bipyridin]-5-yl)-5-(trifluoromethyl)benzamide] |
| 6.5 | Cc1ncc(NC(=O)c2ccc(C#N)c(C(F)(F)F)c2)cc1-c1cc(N2CCOCC2)c2nccn2c1 [Example 877, 4-cyano-N-(6-methyl-5-(8-morpholinoimidazo[1,2-a]pyridin-6-yl)pyridin-3-yl)-3-(trifluoromethyl)benzamide] |
| 3.28 | Cc1ncc(NC(=O)c2ccnc(C(C)(F)F)c2)cc1-c1cc(C2COCCO2)nc(N2CCOCC2)c1 (stereo not drawn) [Example 1166, N-(2′-(1,4-dioxan-2-yl)-2-methyl-6′-morpholino-[3,4′-bipyridin]-5-yl)-2-(1,1-difluoroethyl)isonicotinamide] |
| 12.2 | CCC(F)(F)c1cc(C(=O)Nc2cnc(C)c(-c3cc(N4CCOCC4)c(S(C)(=O)=O)nn3)c2)ccn1 [Example 925, 2-(1,1-difluoropropyl)-N-(6-methyl-5-(6-(methylsulfonyl)-5-morpholinopyridazin-3-yl)pyridin-3-yl)isonicotinamide] |

Same assay, conditions: read-out: b-Raf IC-50; Table 2; AlphaScreen, 3 hours reaction

| IC50 [nM] | Compound |
| --- | --- |
| 1.1 | CCOc1ncc(-c2cc(NC(=O)c3cnnc(C(F)(F)F)c3)ccc2C)cc1N1CCOCC1 [Example 280, N-(3-(6-ethoxy-5-morpholinopyridin-3-yl)-4-methylphenyl)-6-(trifluoromethyl)pyridazine-4-carboxamide] |
| 2.9 | COc1ncc(-c2cc(NC(=O)c3ccnc(C4(C#N)CC4)c3)cnc2Cl)cc1N1CCOCC1 [Example 260, N-(2-chloro-6′-methoxy-5′-morpholino-[3,3′-bipyridin]-5-yl)-2-(1-cyanocyclopropyl)isonicotinamide] |
| 64.2 | Cc1ncc(NC(=O)c2cccc(C(C)(C)C#N)c2)cc1-c1cc(N2CCOCC2)c(=O)n(C)c1 [Example 389, 3-(2-cyanopropan-2-yl)-N-(1′,2-dimethyl-5′-morpholino-6′-oxo-1′,6′-dihydro-[3,3′-bipyridin]-5-yl)benzamide] |
| 1.6 | Cc1ccc(C(=O)Nc2cccc(C(F)F)c2)cc1-c1cc(N2CCOCC2)c(=O)n(C)c1 [Example 430, N-(3-(difluoromethyl)phenyl)-4-methyl-3-(1-methyl-5-morpholino-6-oxo-1,6-dihydropyridin-3-yl)benzamide] |
| 1.1 | CCOc1ncc(-c2cc(C(=O)Nc3ccnc(C(F)(F)F)c3)ccc2C)cc1N1CCOCC1 [Example 306, 3-(6-ethoxy-5-morpholinopyridin-3-yl)-4-methyl-N-(2-(trifluoromethyl)pyridin-4-yl)benzamide] |
| 8.4 | Cc1ncc(NC(=O)c2cccc(OC(C)C)c2)cc1-c1cc(N2CCOCC2)c(=O)n(C)c1 [Example 398, N-(1′,2-dimethyl-5′-morpholino-6′-oxo-1′,6′-dihydro-[3,3′-bipyridin]-5-yl)-3-isopropoxybenzamide] |
